The test system of data set [1] is U87-MG cells. Briefly: MTT cell viability, U87-MG. The data set is classed as cell-based. To be noted: Homo sapiens, U-87 MG, 72 h. The method, then: (§1) Cells were seeded at a density of 1.5 × 10^3 cells/well (conventional cell lines) or 5 × 10^3 cells/well (GNS and NHA) in 96-well plates and incubated overnight. Cells were then treated with increasing concentrations of MSMs. After 72 h, cells were incubated for 3.5 h with MTT, after which absorbance at 570 nm was measured. IC50 values were calculated using GraphPad Prism software.

For data set [2], the system named is Normal Human Astrocytes (NHAs). Briefly: MTT cell viability, normal human astrocytes. The data set is classed as cell-based. As to conditions: Astrocyte, MSM 0–100 μM, 72 h, read-out: IC50 in NHA. The method, then:
as §1

In data set [3] the test system is MKN45 gastric cancer cells. Briefly: MTT cell viability, MKN45. As to conditions: Homo sapiens, MKN-45; MSM 0–10 μM. The format is cell-based. The method, then: as §1
Data set [4] relates to RWP1 pancreatic cancer cells. Briefly: MTT cell viability, RWP1. The format is cell-based. To be noted: MSM 0–10 μM. The method, then: as §1
The next data set relates to H1299 lung cancer cells. In words: MTT cell viability, H1299. The format is cell-based. To be noted: Homo sapiens, NCI-H1299; MSM 0–10 μM. The procedure: as §1
For data set [5], the system named is GNS166 cells. In words: Cell cycle analysis by flow cytometry. The data set is classed as cell-based. To be noted: 5 μM. The procedure: Cells were harvested using accutase and washed with PBS. Then, 1·10^6 cells were fixed with 70% cold ethanol at −20 °C for at least 24 h, and incubated with 0.5% Triton X-100 and 25 µg/mL RNase A in PBS for 30 minutes at room temperature. Then, DNA was stained with 25 ng/mL propidium iodide for 15 minutes and samples were analyzed using a CytoFLEX flow cytometer (Beckman Coulter Co., Brea, CA, USA).

The target of the next data set is T1, recombinant hMAO-B (Homo sapiens, UniProt P27338).
T1 sequence (P27338 1-520): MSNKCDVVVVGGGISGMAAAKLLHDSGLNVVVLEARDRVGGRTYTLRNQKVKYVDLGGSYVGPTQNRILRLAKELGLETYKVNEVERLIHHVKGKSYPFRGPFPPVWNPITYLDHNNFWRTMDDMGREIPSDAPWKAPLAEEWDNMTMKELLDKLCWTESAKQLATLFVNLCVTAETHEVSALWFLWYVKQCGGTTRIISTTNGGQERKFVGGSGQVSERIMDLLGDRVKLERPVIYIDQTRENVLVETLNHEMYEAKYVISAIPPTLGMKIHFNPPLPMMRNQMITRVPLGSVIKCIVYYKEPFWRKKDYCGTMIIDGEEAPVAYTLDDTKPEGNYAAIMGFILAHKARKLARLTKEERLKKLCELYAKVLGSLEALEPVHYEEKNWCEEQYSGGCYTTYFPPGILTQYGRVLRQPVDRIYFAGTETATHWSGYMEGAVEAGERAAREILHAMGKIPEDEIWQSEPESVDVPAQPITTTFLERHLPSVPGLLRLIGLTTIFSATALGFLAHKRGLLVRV
In words: MAO-B inhibition assay. The format is biochemical. As to conditions: 30 min preincubation, 37 °C. The procedure: Subsequently, 200 U/mL horseradish peroxidase, 20 mM Ampliflu Red and 100 mM tyramine hydrochloride (Sigma-Aldrich) were added, and absorbance was measured at 570 nm every 5 min for 30 min. The inhibition percentage was calculated from these absorbance values.

Data set [6] deals with MKN45, RWP1 and H1299 cancer cells. Briefly: MTT cell viability, summary over gastric, pancreatic and lung cancer cells. The data set is classed as cell-based. As to conditions: range over the three cell lines; read-out: IC50 range across MKN45, RWP1 and H1299. The procedure: as §1
Data set [7] deals with U251-MG cells. Briefly: MTT cell viability, U251-MG. The data set is classed as cell-based. The procedure: as §1
Data set [8] relates to GNS179 patient-derived GSCs. In words: MTT cell viability, GNS179. The format is cell-based. The method, then:
as §1

Another data set is described as follows: In vivo toxicity assay. To be noted: intraperitoneal, 15 mg/kg. The method, then: Briefly, 15 mg/kg of MTP150 or vehicle (DMSO) was administered intraperitoneally to athymic nude-Foxn1^nu mice on a 5-days-on, 2-days-off schedule. Body weight was monitored to assess MSM potential toxicity. At the end-point, macroscopic analysis of the different organs was carried out.

Data set [9] relates to U87-MG subcutaneous tumors. Briefly: In vivo carcinogenesis assay, monotherapy, subcutaneous U87-MG tumors. Further details: species or system mice. The procedure: (§2) Subcutaneous tumor growth was initiated by injecting 5 × 10^5 cells into both hind flanks of athymic nude-Foxn1^nu mice. Once the tumors reached 25–50 mm^3, mice were allocated to treatment groups by gender and tumor size. For monotherapy, mice were treated intratumorally with vehicle (DMSO dilution) or 200 µM of MTP150 or intraperitoneally with 15 mg/kg, on a 5-days-on, 2-days-off schedule. In combination therapy, 0.5 mg/Kg TMZ or vehicle was administered intraperitoneally during the first 5 days; intratumoral MTP150 or vehicle was delivered with the same schedule. After 4 weeks, mice were sacrificed and tumors were extracted.

Data set [10] is described as follows: Cell viability (MTT) of TMZ and MTP150 alone and combined. The format is cell-based. To be noted: 250 µM TMZ, 0.5 µM MTP150, 72 h. The method, then: as §1
A further data set has as its system subcutaneous tumors. Briefly: In vivo carcinogenesis assay, combination with TMZ. Further details: species or system mice. The method, then:
as §2

For data set [11], the system named is U87-MG cells. In words: Western blot of acetylated α-tubulin and acetylated H3, U87-MG. The format is cell-based. To be noted: 0.5, 1 and 10 µM. The procedure:
(§3) Sodium dodecyl sulfate-polyacrylamide gel electrophoresis was performed. Primary antibodies against HDAC1 (Abcam, Waltham, MA, USA) and HDAC6 (Cell Signaling, Danvers, MA, USA), along with their downstream targets, acetylated H3 (Cell Signaling) and acetylated α-tubulin (Abcam), were used. β-actin (Sigma-Aldrich) served as endogenous control. Secondary antibodies conjugated to horseradish peroxidase (anti-rabbit or anti-mouse; Cell Signaling) were applied. Proteins were detected using the iBright imaging system and either NOVEX ECL Chemi Substrate or SuperSignal West Femto Maximum Sensitivity Substrate (ThermoFisher, Waltham, MA, USA).

For data set [12], the system named is GNS166 cells. In words: Western blot of acetylated α-tubulin and acetylated H3, GNS166. The format is cell-based. As to conditions: increasing concentrations. The procedure: as §3
Data set [13] has as its system U251-MG cells. In words: Immunofluorescence proliferation / apoptosis, U251-MG. The format is cell-based. As to conditions: dose-dependent. The procedure: (§4) For immunofluorescence assays, cells were seeded at a density of 2 × 10^4 cells/well in 8-well immunofluorescence chambers (LabTek Thermo, Waltham, MA, USA) and incubated overnight. Following 48 h of treatment, cells were fixed with 4% PFA. Primary antibodies against phospho-Histone H3 (p-H3, Abcam) and Caspase 3 (R&D Systems, Minneapolis, MN, USA) and secondary antibodies Alexa Fluor anti-mouse and anti-rabbit (Invitrogen, Carlsbad, CA, USA) were used. Nuclei were stained with DAPI (Sigma-Aldrich). Images were acquired using an Axio Observer 7 epifluorescence microscope, and quantification was performed with Qupath software version 0.6.0.

For another data set, the system named is GNS179 cells. In words: Immunofluorescence proliferation / apoptosis, GNS179. The data set is classed as cell-based. To be noted: dose-dependent. The procedure: as §4
The target in the next data set is BChE (Homo sapiens, UniProt P06276). Briefly: BChE inhibition, Ellman's colorimetric method. Background: DTNB colorimetry detects thiols as they appear.
The next data set has as its system HDAC1. Further details: method as in PMID 40109740. To be noted: read-out: HDAC inhibitory activity HDAC1 (IC50); cited from earlier work.
The next data set has as its system HDAC6. Further details: method as in PMID 40109740. As to conditions: read-out: HDAC inhibitory activity HDAC6 (IC50); cited from earlier work.
The mark [14] stands for this setting: intraperitoneal treatment, immunohistochemistry at end-point.
[15] abbreviates: intratumoral, immunohistochemistry at end-point.

Values joined by “and” are separate entries in the source; they are usually repeats but may differ in a detail not shown here. Identical values can stand only once. “Also recorded” adds a separate entry of the source.

Sequence of BChE (P06276 29-602, species assumed): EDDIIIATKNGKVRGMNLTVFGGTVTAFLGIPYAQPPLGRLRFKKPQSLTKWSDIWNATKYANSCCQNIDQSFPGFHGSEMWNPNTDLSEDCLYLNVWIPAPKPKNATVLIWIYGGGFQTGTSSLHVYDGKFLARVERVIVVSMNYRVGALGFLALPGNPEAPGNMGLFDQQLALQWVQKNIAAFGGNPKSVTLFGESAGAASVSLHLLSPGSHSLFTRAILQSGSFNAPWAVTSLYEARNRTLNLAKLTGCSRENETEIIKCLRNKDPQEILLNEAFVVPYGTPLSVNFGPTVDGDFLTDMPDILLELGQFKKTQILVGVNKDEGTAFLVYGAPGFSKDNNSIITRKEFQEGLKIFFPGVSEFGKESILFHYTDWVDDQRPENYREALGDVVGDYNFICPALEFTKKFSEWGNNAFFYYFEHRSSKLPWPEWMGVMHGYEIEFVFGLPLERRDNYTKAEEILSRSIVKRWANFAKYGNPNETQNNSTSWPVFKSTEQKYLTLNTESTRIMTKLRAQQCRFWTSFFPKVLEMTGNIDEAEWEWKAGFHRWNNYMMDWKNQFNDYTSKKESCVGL
Method for BChE: To assess ChEs inhibition, Ellman’s colorimetric method was followed. […] After incubation, the substrate solution (acetylthiocholine or butyrylthiocholine iodide, Sigma-Aldrich, at 1.5 mM) was added, and absorbance was recorded at 405 nm every minute for 10 min. […] Enzyme kinetics were evaluated with varying substrate and inhibitor concentrations, and the results were plotted as Lineweaver–Burk plots using GraphPad Prism software. The inhibition constant (Ki) was estimated from the intersection on the x-axis in secondary plots.

Take `COc1ccc2c(ccn2S(=O)(=O)c2cccc(/C=C/C(=O)NO)c2)c1` [MTP142]: the IC50 in the data set on U87-MG cells [1] worked out at 3.22 µM; in data set [2], 9.78 µM; in data set [3], 3.27 µM; in [4], 970 nM; in the data set on H1299 lung cancer cells, 5.64 µM.

Turning to `O=C(/C=C/c1cccc(S(=O)(=O)Nc2ccccc2)c1)NO` [Belinostat], in the data set on GNS166 cells [5], the cell cycle alterations entry is listed as “accumulation of cells in the subG0 phase”.

With `O=C(/C=C/c1cccc(S(=O)(=O)n2ccc3cc(OCCCN4CCCCC4)ccc32)c1)NO` [MTP150], the half-inhibitory concentration (IC50) was determined as 0.55 µM in the data set on U87-MG cells [1]; 1.5 µM on recombinant hMAO-B; 5.72 µM in [2]; 0.2 µM in data set [3]; 100 nM in data set [4]; 0.7 µM in the data set with H1299 lung cancer cells. Also, the half-maximal inhibitory concentration (IC50) in data set [6] is 100 to 700 nM; in the data set on U251-MG cells [7] (Homo sapiens, U-251, MTT), 1.02 µM; with U251-MG cells [7] (MTT), 1 µM; in [8], 6.03 µM and 6 µM; against BChE it was 8.09 µM. In addition, the “animal body weight compared to controls” value in the data set “In vivo toxicity assay” (5-days-on 2-days-off, 4 weeks) was “did not produce any significant changes in animal body weight”. Besides, the “macroscopic analysis of post-mortem tissues” value in “In vivo toxicity assay” (end-point) is “did not show clear differences”. Further, the “oncospheres generated by cells dissociated from treated tumors” value in [9] (10 days in the absence of treatment) is “significantly fewer oncospheres”. Also, the average tumor volume in [9] (intraperitoneal treatment, U87-MG subcutaneous tumors) is listed as ~ 270 mm^3; in data set [9] (intratumoral 200 µM) it was ~ 480 mm^3. The “acetyl-α-tubulin and acetyl H3 staining in tumors” value in data set [9] (setting [14]) is recorded as “promotes an increase in both”. The “cleaved Caspase 3 staining in tumors” value in [9] (setting [14]) is listed as “increase in apoptosis”. Also, the “reduction in final tumor volume vs control” value in data set [9] (intratumoral 200 µM) was ~ 50%. Further, in data set [9] (intratumoral 200 µM, end-point day 39), the “tumor weight, lower mass than controls” value was greater than 40%. Also, the “PCNA positive cells in resected tumors” value in data set [9] (setting [15]) is recorded as “fewer PCNA positive cells”. Further, in data set [9] (setting [15]), the “cleaved Caspase 3 in resected tumors” value is given as “increased cleaved Caspase 3”. Further, the “tumor inhibition compared with Belinostat” value in data set [9] (relative tumor inhibition) is given as “more intense tumor inhibition”. For the same molecule, the viability at 72 h in data set [10] was found to be 37%. Also, in the data set on subcutaneous tumors (monotherapy and combination with TMZ), the “antitumor activity compared with Belinostat” value was “greater antitumor activity”. Further, the “levels of acetylated α-tubulin and acetylated H3” value in the data set with U87-MG cells [11] is “highest levels of acetylated proteins; also recorded: higher levels of acetylated α-tubulin and H3 than both Belinostat and SAHA”; in the data set with GNS166 cells [12] it was “higher levels of acetylated α-tubulin and H3 than both Belinostat and SAHA”. The “apoptosis (Caspase 3-positive cells)” value in the data set with U251-MG cells [13] and with GNS179 cells was “increased” in each case. Also, the “proliferation (p-H3- and Ki67-positive cells)” value in the data set with U251-MG cells [13] and in the data set with GNS179 cells was “reduced” in each case. For the same molecule, the cell cycle alterations result with GNS166 cells [5] is listed as “accumulation of cells in the subG0 phase”. In addition, affinity at BChE was put at a Ki of 2510 nM. Also, the BChE inhibition mechanism entry at BChE (Lineweaver–Burk plot) is “mixed inhibition mechanism”. Besides, on BChE (read-out: BChE inhibition), the inhibition at 10 µM amounted to 60%.

Take `O=C(/C=C/c1cccc(S(=O)(=O)n2ccc3cc(OCc4ccccc4)ccc32)c1)NO` [MTP156]: the IC50 with U87-MG cells [1] is 3.13 µM; in data set [2], 7.69 µM; in data set [3] it was 5.74 µM; in data set [4], 1170 nM; in the data set on H1299 lung cancer cells it was 6.63 µM; in the data set on HDAC1, 210 nM. The half-inhibitory concentration (IC50) with HDAC6 is 330 nM. Besides, in the data set with GNS166 cells [5], the cell cycle alterations result is “accumulation of cells in the subG0 phase”.

In the case of `Cn1nnc2c(C(N)=O)ncn2c1=O` [TMZ, temozolomide, reference compound], the average tumor volume in the data set with subcutaneous tumors (TMZ 0.5 mg/Kg i.p. first 5 days, intratumoral MTP150 or vehicle) is recorded as ~ 580 mm^3.

For orientation: IC50 means the concentration needed to halve the response being measured. As a reminder, the viability is a read-out of living cells in per cent, often relative to untreated cells. For orientation: Ki means the equilibrium dissociation constant of an inhibitor or competing ligand from its target. A lower Ki goes with tighter binding. A word on the inhibition: it is how much of the control response was suppressed.

The values above are taken from publication PMC12845422, “Characterization of a Novel Family of Contilisant + Belinostat Multitarget Small Molecules in Glioblastoma” (Pharmaceuticals, 2025).
